Source: patent publication US10364245B2 (CHIESI FARMACEUTICI S.p.A., priority 2017, dated 2019)
Where a name gives a salt, the structure may show the parent alone.

Key:
[1] = target: T1, p38 alpha (Homo sapiens, UniProt Q16539); assay: P38 alpha enzyme inhibition assay (Alphascreen kinase activity assay); type: biochemical; details: 100 pM p38 alpha, 2 hours preincubation at 25° C., 250 μM ATP, ATF-2 fusion protein; read-out: p38α inhibition
T1 construct: purchased Invitrogen PV3304
Summary of the method: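 100 pM p38 alpha preincubated 2 h at 25 °C with compound and 0.3 μg/ml ATF-2 fusion substrate (HEPES pH 7.5, MgCl2, 1% DMSO). Reaction started with 250 μM ATP, run 1 h at 25 °C, stopped with EDTA; phospho-ATF2 detected by AlphaScreen luminescence. IC50 from concentration-response curves.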

[2] = test system: Peripheral Blood Mononuclear Cells (PBMCs), TNFα release; assay: LPS-stimulated PBMC TNFα release assay; type: cell-based; details: human PBMC, LPS (10 ng/ml), 18 h, compound 1 h before LPS; read-out: LPS-stimulated PBMC TNFα release inhibition
Summary of the method: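 Human PBMCs from healthy donors, serum-starved 3 h, then pre-incubated 1 h at 37 °C with compound in 1% FBS medium before LPS (10 ng/ml) for 18 h. Supernatant TNFα measured by MSD; IC50 from dose-response as % inhibition of control, at least three experiments.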

T1 sequence (Q16539 whole entry, the tested form may be a part): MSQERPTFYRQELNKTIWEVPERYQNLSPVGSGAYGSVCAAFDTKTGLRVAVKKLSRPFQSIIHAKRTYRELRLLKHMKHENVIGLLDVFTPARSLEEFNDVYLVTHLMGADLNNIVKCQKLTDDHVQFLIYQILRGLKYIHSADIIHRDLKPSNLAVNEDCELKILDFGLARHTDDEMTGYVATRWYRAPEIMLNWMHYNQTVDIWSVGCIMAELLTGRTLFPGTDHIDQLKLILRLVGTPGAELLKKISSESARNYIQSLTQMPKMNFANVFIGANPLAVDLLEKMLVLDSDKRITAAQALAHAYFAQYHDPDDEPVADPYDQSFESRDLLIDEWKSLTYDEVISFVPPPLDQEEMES

| Compound | IC50 [1] | IC50 [2] |
| --- | --- | --- |
| CN1CC[C@H](NC(=O)c2nc(NC(=O)N[C@H]3CC[C@@H](Oc4ccc5nnc(C(C)(C)C)n5c4)c4ccccc43)cc(C(C)(C)C)n2)C1 [Example 136, 4-(tert-butyl)-6-(3-((1S,4R)-4-((3-(tert-butyl)-[1,2,4]triazolo[4,3-a]pyridin-6-yl)oxy)-1,2,3,4-tetrahydronaphthalen-1-yl)ureido)-N-((S)-1-methylpyrrolidin-3-yl)pyrimidine-2-carboxamide] | < 1 nM | > 5 nM |
| COC1CN(CCNC(=O)c2nc(NC(=O)N[C@H]3CC[C@@H](Oc4ccc5nnc(C6(C)CC6)n5c4)c4ccccc43)cc(C(C)(C)C)n2)C1 [Example 138, 4-(tert-butyl)-N-(2-(3-methoxyazetidin-1-yl)ethyl)-6-(3-((1S,4R)-4-((3-(1-methylcyclopropyl)-[1,2,4]triazolo[4,3-a]pyridin-6-yl)oxy)-1,2,3,4-tetrahydronaphthalen-1-yl)ureido)pyrimidine-2-carboxamide] | < 1 nM | > 5 nM |
| CN1CCN(C(C)(C)c2nnc3ccc(O[C@@H]4CC[C@H](NC(=O)Nc5cc(C(C)(C)C)nc(C(=O)NCCO)n5)c5ccccc54)cn23)CC1 [Example 139, 4-(tert-butyl)-N-(2-hydroxyethyl)-6-(3-((1S,4R)-4-((3-(2-(4-methylpiperazin-1-yl)propan-2-yl)-[1,2,4]triazolo[4,3-a]pyridin-6-yl)oxy)-1,2,3,4-tetrahydronaphthalen-1-yl)ureido)pyrimidine-2-carboxamide] | 1 to 10 nM | > 5 nM |
| CC(C)(C)c1cc(NC(=O)N[C@H]2CC[C@@H](Oc3ccc4nnc(C(C)(C)C)n4c3)c3ccccc32)nc(C(=O)NCCN2CCC2)n1 [Example 140, N-(2-(azetidin-1-yl)ethyl)-4-(tert-butyl)-6-(3-((1S,4R)-4-((3-(tert-butyl)-[1,2,4]triazolo[4,3-a]pyridin-6-yl)oxy)-1,2,3,4-tetrahydronaphthalen-1-yl)ureido)pyrimidine-2-carboxamide] | < 1 nM | > 5 nM |
| CN(CCO)CCNC(=O)c1nc(NC(=O)N[C@H]2CC[C@@H](Oc3ccc4nnc(C5(C)CC5)n4c3)c3ccccc32)cc(C(C)(C)C)n1 [Example 145, 4-(tert-butyl)-N-(2-((2-hydroxyethyl)(methyl)-amino)ethyl)-6-(3-((1S,4R)-4-((3-(1-methylcyclopropyl)-[1,2,4]triazolo[4,3-a]pyridin-6-yl)oxy)-1,2,3,4-tetrahydronaphthalen-1-yl)ureido)pyrimidine-2-carboxamide] | < 1 nM | > 5 nM |
| CC[C@H](C)c1nnc2ccc(O[C@@H]3CC[C@H](NC(=O)Nc4cc(C(C)(C)C)nc(C(=O)NCCN(C)CC)n4)c4ccccc43)cn12 [Example 146, 4-(tert-butyl)-6-(3-((1S,4R)-4-((3-((S)-sec-butyl)-[1,2,4]triazolo[4,3-a]pyridin-6-yl)oxy)-1,2,3,4-tetrahydronaphthalen-1-yl)ureido)-N-(2-(ethyl(methyl)amino)-ethyl)pyrimidine-2-carboxamide] | < 1 nM | 1 to 5 nM |
| COCC(C)(C)c1nnc2ccc(O[C@@H]3CC[C@H](NC(=O)Nc4cc(C(C)(C)C)nc(C(=O)NCC5(N(C)C)CC5)n4)c4ccccc43)cn12 [Example 149, 4-(tert-butyl)-N-((1-(dimethylamino)cyclopropyl)methyl)-6-(3-((1S,4R)-4-((3-(l-methoxy-2-methylpropan-2-yl)-[1,2,4]triazolo[4,3-a]pyridin-6-yl)oxy)-1,2,3,4-tetrahydronaphthalen-1-yl)ureido)pyrimidine-2-carboxamide] | < 1 nM | 1 to 5 nM |
| COCC(C)(C)c1nnc2ccc(O[C@@H]3CC[C@H](NC(=O)Nc4cc(C(C)(C)C)nc(C(=O)NCC5(N(C)C)CCCC5)n4)c4ccccc43)cn12 [Example 154, 4-(tert-butyl)-N-((1-(dimethylamino)cyclopentyl)methyl)-6-(3-((1S,4R)-4-((3-(1-methoxy-2-methylpropan-2-yl)-[1,2,4]triazolo[4,3-a]pyridin-6-yl)oxy)-1,2,3,4-tetrahydronaphthalen-1-yl)ureido)pyrimidine-2-carboxamide] | < 1 nM | > 5 nM |
| COCC(C)(C)c1nnc2ccc(O[C@@H]3CC[C@H](NC(=O)Nc4cc(C(C)(C)C)nc(C(=O)NCC(C)(C)N5CCN(C)CC5)n4)c4ccccc43)cn12 [Example 155, 4-(tert-butyl)-6-(3-((1S,4R)-4-((3-(1-methoxy-2-methylpropan-2-yl)-[1,2,4]triazolo[4,3-a]pyridin-6-yl)oxy)-1,2,3,4-tetrahydronaphthalen-1-yl)ureido)-N-(2-methyl-2-(4-methylpiperazin-1-yl)propyl)pyrimidine-2-carboxamide] | < 1 nM | > 5 nM |

Second part, led by results:

| IC50 [1] | Compound | IC50 [2] |
| --- | --- | --- |
| 1 to 10 nM | COCCN(C)CCNC(=O)c1nc(NC(=O)N[C@H]2CC[C@@H](Oc3ccc4nnc(C5(C)CC5)n4c3)c3ccccc32)cc(C(C)(C)C)n1 [Example 137, 4-(tert-butyl)-N-(2-((2-methoxyethyl)(methyl)-amino)ethyl)-6-(3-((1S,4R)-4-((3-(1-methylcyclopropyl)-[1,2,4]triazolo[4,3-a]pyridin-6-yl)oxy)-1,2,3,4-tetrahydronaphthalen-1-yl)ureido)pyrimidine-2-carboxamide] | > 5 nM |
| < 1 nM | CCN(CC)c1nnc2ccc(O[C@@H]3CC[C@H](NC(=O)Nc4cc(C(C)(C)C)nc(C(=O)NCCN(C)C)n4)c4ccccc43)cn12 [Example 142, 4-(tert-butyl)-6-(3-((1S,4R)-4-((3-(diethylamino)-[1,2,4]triazolo[4,3-a]pyridin-6-yl)oxy)-1,2,3,4-tetrahydronaphthalen-1-yl)ureido)-N-(2-(dimethylamino)ethyl)-pyrimidine-2-carboxamide] | 1 to 5 nM |
| < 1 nM | CCN(CC)c1nnc2ccc(O[C@@H]3CC[C@H](NC(=O)Nc4cc(C(C)(C)C)nc(C(=O)NCC(C)(C)N(C)C)n4)c4ccccc43)cn12 [Example 143, 4-(tert-butyl)-6-(3-((1S,4R)-4-((3-(diethylamino)-[1,2,4]triazolo[4,3-a]pyridin-6-yl)oxy)-1,2,3,4-tetrahydronaphthalen-1-yl)ureido)-N-(2-(dimethylamino)-2-methylpropyl)pyrimidine-2-carboxamide] | 1 to 5 nM |
| < 1 nM | CN1CCN(C(C)(C)CNC(=O)c2nc(NC(=O)N[C@H]3CC[C@@H](Oc4ccc5nnc(C(C)(C)C)n5c4)c4ccccc43)cc(C(C)(C)C)n2)CC1 [Example 151, 4-(tert-butyl)-6-(3-((1S,4R)-4-((3-(tert-butyl)-[1,2,4]triazolo[4,3-a]pyridin-6-yl)oxy)-1,2,3,4-tetrahydronaphthalen-1-yl)ureido)-N-(2-methyl-2-(4-methylpiperazin-1-yl)propyl)pyrimidine-2-carboxamide] | > 5 nM |
| < 1 nM | CCN(C)C(C)(C)CNC(=O)c1nc(NC(=O)N[C@H]2CC[C@@H](Oc3ccc4nnc(C(C)(C)COC)n4c3)c3ccccc32)cc(C(C)(C)C)n1 [Example 152, 4-(tert-butyl)-N-(2-(ethyl(methyl)amino)-2-methylpropyl)-6-(3-((1S,4R)-4-((3-(1-methoxy-2-methylpropan-2-yl)-[1,2,4]triazolo[4,3-a]pyridin-6-yl)oxy)-1,2,3,4-tetrahydronaphthalen-1-yl)ureido)pyrimidine-2-carboxamide] | > 5 nM |
| < 1 nM | COCC(C)(C)c1nnc2ccc(O[C@@H]3CC[C@H](NC(=O)Nc4cc(C(C)(C)C)nc(C(=O)NCC5(N(C)C)CCC5)n4)c4ccccc43)cn12 [Example 158, 4-(tert-Butyl)-N-((1-(dimethylamino)-cyclobutyl)methyl)-6-(3-((1S,4R)-4-((3-(1-methoxy-2-methylpropan-2-yl)-[1,2,4]triazolo[4,3-a]pyridin-6-yl)oxy)-1,2,3,4-tetrahydronaphthalen-1-yl)ureido)pyrimidine-2-carboxamide formate salt] | 1 to 5 nM |
| 1 to 10 nM | CN(C)C1(CNC(=O)c2nc(NC(=O)N[C@H]3CC[C@@H](Oc4ccc5nnc(C(C)(C)C)n5c4)c4ccccc43)cc(C(C)(C)C)n2)CC1 [Example 159, 4-(tert-butyl)-6-(3-((1S,4R)-4-((3-(tert-butyl)-[1,2,4]triazolo[4,3-a]pyridin-6-yl)oxy)-1,2,3,4-tetrahydronaphthalen-1-yl)ureido)-N-((1-(dimethylamino)-cyclopropyl)methyl)-pyrimidine-2-carboxamide] | > 5 nM |
| < 1 nM | COCC(C)(C)c1nnc2ccc(O[C@@H]3CC[C@H](NC(=O)Nc4cc(C(C)(C)C)nc(C(=O)NCCN5CC(OC)C5)n4)c4ccccc43)cn12 [Example 166, 4-(tert-butyl)-6-(3-((1S,4R)-4-((3-(1-methoxy-2-methylpropan-2-yl)-[1,2,4]triazolo[4,3-a]pyridin-6-yl)oxy)-1,2,3,4-tetrahydronaphthalen-1-yl)ureido)-N-(2-(3-methoxyazetidin-1-yl)ethyl)pyrimidine-2-] | > 5 nM |
| < 1 nM | CC[C@H](C)c1nnc2ccc(O[C@@H]3CC[C@H](NC(=O)Nc4cc(C(C)(C)C)nc(C(=O)NCCN5CC(OC)C5)n4)c4ccccc43)cn12 [Example 169, 4-(tert-butyl)-6-(3-((1S,4R)-4-((3-((S)-sec-butyl)-[1,2,4]triazolo[4,3-a]pyridin-6-yl)oxy)-1,2,3,4-tetrahydronaphthalen-1-yl)ureido)-N-(2-(3-methoxyazetidin-1-yl)ethyl)pyrimidine-2-carboxamide] | 1 to 5 nM |
